Values of other authors as cited in publication PMC10894724 (Chemistry (Weinheim an der Bergstrasse, Germany), 2023).

Test system: P. falciparum Dd2 strain

CCCCCC(=O)N[C@H](C(=O)N[C@@H](CCS(C)(=O)=O)C(=O)N[C@@H](CC(C)C)C(=O)[C@@]1(C)CO1)C(C)C [carmaphycin B]
selectivity for asexual blood stage P. falciparum cells over human HepG2 cells: 3 fold
